The compounds below were run against T1, PknB (Mycobacterium tuberculosis, UniProt P9WI81) (assay: biochemical). Conditions: 3 nM PknB, 6 uM GarA, 3 μM ATP, 30 min; competitive tight-binding fit; several symbols in a cell = repeat determinations.
T1 construct: made in house
Design: species or system M. tuberculosis

T1 sequence (P9WI81 whole entry): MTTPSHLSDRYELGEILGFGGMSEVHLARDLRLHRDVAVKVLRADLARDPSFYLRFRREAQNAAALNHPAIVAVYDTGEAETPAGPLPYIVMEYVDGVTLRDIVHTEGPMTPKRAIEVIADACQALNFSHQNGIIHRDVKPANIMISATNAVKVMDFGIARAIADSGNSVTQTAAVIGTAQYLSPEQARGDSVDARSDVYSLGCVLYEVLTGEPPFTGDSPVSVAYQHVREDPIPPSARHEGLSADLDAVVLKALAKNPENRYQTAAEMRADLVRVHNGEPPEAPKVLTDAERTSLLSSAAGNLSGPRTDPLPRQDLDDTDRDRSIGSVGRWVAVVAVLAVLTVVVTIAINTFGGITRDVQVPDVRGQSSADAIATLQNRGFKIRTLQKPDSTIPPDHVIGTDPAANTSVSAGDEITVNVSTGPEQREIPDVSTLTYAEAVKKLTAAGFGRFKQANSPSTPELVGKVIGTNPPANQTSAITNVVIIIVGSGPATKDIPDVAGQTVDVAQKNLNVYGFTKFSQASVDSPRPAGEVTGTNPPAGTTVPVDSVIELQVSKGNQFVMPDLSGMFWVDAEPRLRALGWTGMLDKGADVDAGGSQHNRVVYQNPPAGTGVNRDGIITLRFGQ

| SMILES | Ki Values |
| --- | --- |
| C#Cc1cnc(N2CC[C@@H](NC(C)=O)C2)nc1Nc1cc(C2CC2)n[nH]1 [Compound 193, N-[1-[4-[(5-cyclopropyl-2H-pyrazol-3-yl)amino]-5-ethynyl-pyrimidin-2-yl]pyrrolidin-3-yl]acetamide] | B, C |
| CC(=O)NS(=O)(=O)c1ccc(-c2ncc(Cl)c(Nc3cc(C4CC4)[nH]n3)n2)s1 [Compound 194, N-[[5-[5-chloro-4-[(5-cyclopropyl-1H-pyrazol-3-yl)amino]-pyrimidin-2-yl]-2-thienyl]sulfonyl]acetamide] | A, B** |
| C#Cc1cnc(-c2ccc(S(=O)(=O)NC(=O)C(C)(C)C)s2)nc1Nc1cc(C2CC2)[nH]n1 [Compound 201, N-[[5-[4-[(5-cyclopropyl-1H-pyrazol-3-yl)amino]-5-ethynyl-pyrimidin-2-yl]-2-thienyl]sulfonyl]-2,2-dimethyl-propanamide] | B*, B*, B |
| C#Cc1cnc(-c2ccc(C(=O)NCCNC(C)=O)s2)nc1Nc1cc(C2CC2)n[nH]1 [Compound 206, N-(2-acetamidoethyl)-5-(4-(5-cyclopropyl-1H-pyrazol-3-ylamino)-5-ethynylpyrimidin-2-yl)thiophene-2-carboxamide] | B**, B**, B* |
| CC(O)c1cnc(-c2ccc(S(=O)(=O)NC(C)(C)C)s2)nc1Nc1cc(C2CC2)[nH]n1 (centres unmarked) [Compound 208, 5-[4-[(5-cyclopropyl-1H-pyrazol-3-yl)amino]-5-(1-hydroxyethyl)pyrimidin-2-yl]-N-tert-butyl-thiophene-2-sulfonamide] | B**, B**, B*, B |
| NS(=O)(=O)c1ccc(-c2ncc(C#CCO)c(Nc3cc(C4CC4)[nH]n3)n2)s1 [Compound 217, 5-(4-(5-Cyclopropyl-1H-pyrazol-3-ylamino)-5-(3-hydroxyprop-1-ynyl)pyrimidin-2-yl)thiophene-2-sulfonamide] | A**, A* |

Same assay, conditions: 3 nM PknB, 6 uM GarA, 3 μM ATP, 30 min; competitive tight-binding fit; several symbols in a cell = repeat determinations; read-out: Ki Values

| SMILES | Ki [nM] |
| --- | --- |
| C#Cc1cnc(N2CCN(C(C)=O)CC2)nc1Nc1cc(C2CC2)n[nH]1 [Compound 185, 1-[4-[4-[(5-cyclopropyl-2H-pyrazol-3-yl)amino]-5-ethynyl-pyrimidin-2-yl]piperazin-1-yl]ethanone] | 500 to 1000 |
| NS(=O)(=O)c1ccc(-c2ncc(Br)c(Nc3cc(C4CC4)[nH]n3)n2)s1 [Compound 186, 5-[5-bromo-4-[(5-cyclopropyl-1H-pyrazol-3-yl)amino]-pyrimidin-2-yl]thiophene-2-sulfonamide] | 1 to 10 |
| C#Cc1cnc(N2CC[C@H](N)C2)nc1Nc1cc(C2CC2)n[nH]1 [Compound 187, 2-(3-aminopyrrolidin-1-yl)-N-(5-cyclopropyl-2H-pyrazol-3-yl)-5-ethynyl-pyrimidin-4-amine] | > 4000 |
| CCOC(=O)C(=O)c1ccc(-c2ncc(Cl)c(Nc3cc(C4CC4)[nH]n3)n2)s1 [Compound 189, ethyl 2-(5-(5-chloro-4-(5-cyclopropyl-1H-pyrazol-3-ylamino)pyrimidin-2-yl)thiophen-2-yl)-2-oxoacetate] | 50 to 100 |
| O=C(O)C(=O)c1ccc(-c2ncc(Cl)c(Nc3cc(C4CC4)[nH]n3)n2)s1 [Compound 190, 2-(5-(5-chloro-4-(5-cyclopropyl-1H-pyrazol-3-ylamino)pyrimidin-2-yl)thiophen-2-yl)-2-oxoacetic acid] | 10 to 50 |
| C#Cc1cnc(-c2ccc(CO)s2)nc1Nc1cc(C2CC2)[nH]n1 [Compound 196, (5-(4-(5-cyclopropyl-1H-pyrazol-3-ylamino)-5-ethynylpyrimidin-2-yl)thiophen-2-yl)methanol] | 10 to 50 |
| C#Cc1cnc(-c2ccc(C(=O)C(=O)OCC)s2)nc1Nc1cc(C2CC2)[nH]n1 [Compound 202, ethyl 2-[5-[4-[(5-cyclopropyl-1H-pyrazol-3-yl)amino]-5-ethynyl-pyrimidin-2-yl]-2-thienyl]-2-oxo-acetate] | 10 to 50 |
| C/C=C\c1cnc(-c2ccc(S(N)(=O)=O)s2)nc1Nc1cc(C2CC2)[nH]n1 [Compound 207, (Z)-5-(4-(5-cyclopropyl-1H-pyrazol-3-ylamino)-5-(prop-1-enyl)pyrimidin-2-yl)thiophene-2-sulfonamide] | 1 to 10 |
| C=Cc1cnc(-c2ccc(S(N)(=O)=O)s2)nc1Nc1cc(C2CC2)[nH]n1 [Compound 209, 5-(4-(5-Cyclopropyl-1H-pyrazol-3-ylamino)-5-vinylpyrimidin-2-yl)thiophene-2-sulfonamide] | 1 to 10 |
| C#Cc1cnc(-c2ccc([C@H](O)CC)s2)nc1Nc1cc(C2CC2)[nH]n1 [Compound 213, 1-[5-[4-[(5-cyclopropyl-1H-pyrazol-3-yl)amino]-5-ethynyl-pyrimidin-2-yl]-2-thienyl]propan-1-ol] | 1 to 10 |
| CC(C)(C)NS(=O)(=O)c1ccc(-c2ncc(/C=C/CO)c(Nc3cc(C4CC4)[nH]n3)n2)s1 [Compound 218, (E)-N-tert-butyl-5-(4-(5-cyclopropyl-1H-pyrazol-3-ylamino)-5-(3-hydroxyprop-1-enyl)pyrimidin-2-yl)thiophene-2-sulfonamide] | 50 to 100 |
| O=C(O)C(O)c1ccc(-c2ncc(Cl)c(Nc3cc(C4CC4)[nH]n3)n2)s1 (centres unmarked) [Compound 219, 2-(5-(5-chloro-4-(5-cyclopropyl-1H-pyrazol-3-ylamino)pyrimidin-2-yl)thiophen-2-yl)-2-hydroxyacetic acid] | 100 to 500 |
| NS(=O)(=O)c1ccc(-c2ncc(Cl)c(Nc3cc(-c4cccs4)[nH]n3)n2)s1 [Compound 220, 5-[5-chloro-4-[[5-(2-thienyl)-1H-pyrazol-3-yl]amino]-pyrimidin-2-yl]thiophene-2-sulfonamide] | > 4000 |
| NS(=O)(=O)c1ccc(-c2ncc(Cl)c(Nc3cc[nH]n3)n2)s1 [Compound 221, 5-[5-chloro-4-(1H-pyrazol-3-ylamino)-pyrimidin-2-yl]thiophene-2-sulfonamide] | 1 to 10 |
| C#Cc1cnc(-c2ccc(S(=O)(=O)CCCNC(C)=O)s2)nc1Nc1cc(C2CC2)[nH]n1 [Compound 229, N-(3-(5-(4-(5-cyclopropyl-1H-pyrazol-3-ylamino)-5-ethynylpyrimidin-2-yl)thiophen-2-ylsulfonyl)propyl)acetamide] | 10 to 50 |
| C#Cc1cnc(-c2ccc(C(O)CCOC)s2)nc1Nc1cc(C2CC2)n[nH]1 (centres unmarked) [Compound 230, 1-[5-[4-[(5-cyclopropyl-2H-pyrazol-3-yl)amino]-5-ethynyl-pyrimidin-2-yl]-2-thienyl]-3-methoxy-propan-1-ol] | 50 to 100 |
| C#Cc1cnc(-c2ccc(C(O)C(=O)O)s2)nc1Nc1cc(C2CC2)[nH]n1 (centres unmarked) [Compound 231, 2-[5-[4-[(5-cyclopropyl-1H-pyrazol-3-yl)amino]-5-ethynyl-pyrimidin-2-yl]-2-thienyl]-2-hydroxy-acetic acid] | 50 to 100 |
| C#Cc1cnc(-c2ccc(C(O)C(=O)OCC)s2)nc1Nc1cc(C2CC2)[nH]n1 (centres unmarked) [Compound 233, ethyl 2-[5-[4-[(5-cyclopropyl-1H-pyrazol-3-yl)amino]-5-ethynyl-pyrimidin-2-yl]-2-thienyl]-2-hydroxy-acetate] | 10 to 50 |
| NS(=O)(=O)c1ccc(-c2ncc(Cl)c(Nc3cc(-c4ccccc4)[nH]n3)n2)s1 [Compound 234, 5-[5-chloro-4-[(5-phenyl-1H-pyrazol-3-yl)amino]-pyrimidin-2-yl]thiophene-2-sulfonamide] | > 4000 |
| NS(=O)(=O)c1ccc(-c2ncc(Cl)c(Nc3cc(C4CCCC4)[nH]n3)n2)s1 [Compound 235, 5-[5-chloro-4-[(5-cyclopentyl-1H-pyrazol-3-yl)amino]-pyrimidin-2-yl]thiophene-2-sulfonamide] | 10 to 50 |

From patent publication US20110053916A1 (Vertex Pharmaceuticals Incorporated, priority 2009, published 2011)
